From US5455286A, “Bioactive composition” (priority 1994, dated 1995) come the findings set out here.

For data set [1] the following is noted: dog, in vivo, 480 min.
Procedure: (§1) The experiments were carried out on male beagle dogs, each roughly 10 kg in weight. […] The dogs were restrained in a dog sling. Approximately 10 mg of propranolol was administered nasally to each dog by spraying an appropriate amount of the present formulations containing propranolol into both nostrils of the dog using a metered dose dispenser (typically 2 sprays over a two minute period). The amount of drug administered nasally was obtained by weighing the dispenser before and after spraying.
(§2) Blood samples were withdrawn at desired intervals from each dog through a cannula inserted in the cephalic vein. The blood samples were centrifuged immediately after the collection and the plasma samples were stored frozen until assayed. The assay for propranolol consisted of HPLC separation and UV/fluorescence detection.
(§3) The area under the curve (AUC) has been normalized to the amount of propranolol administered.
Another data set can be described thus: in vivo. Conditions: dog.

Procedure for in vivo: as §1, §2, §3

In turn, `CC(C)NCC(O)COc1cccc2ccccc12` (centres unmarked) [Propranolol, propranolol] gave an AUC/IV-AUC in data set [1] of 1.00. For the same molecule, the time of peak concentration (Tmax) in “in vivo” (iv) is 0.05 h. Moreover, in “in vivo” (po), the peak concentration (Cmax) stood at 3 ng/mL, the Tmax is 2 h and the bioavailability at 8 h was 4%.

A word on the Tmax: it is the time at which the peak concentration occurs. By Cmax is commonly meant the highest concentration seen after dosing. The term bioavailability denotes dose-corrected exposure relative to a reference, in per cent. High values mean much systemic uptake, low ones little systemic uptake.
